Experimental data published in paper PMC6605100 (Peptide science (Hoboken, N.J.), 2018).

Experiments:
[1] = Peptide degradation assay in HeLa lysates, RP-HPLC; conditions: 30 μM peptide, HeLa lysates 2 mg/mL, 10 mM Tris-HCl pH 7.6, 37°C, HPLC UV 442 nm

Compound	time within which the peptide was mostly degraded [1] [min]	entry into intact cells (permeability) (HeLa cells)
N=C(N)NCCC[C@H](NC(=O)[C@H](CCCNC(=N)N)NC(=O)[C@H](CCCNC(=N)N)NC(=O)[C@H](CCC(N)=O)NC(=O)[C@H](CCCNC(=N)N)NC(=O)[C@H](CCCNC(=N)N)NC(=O)[C@H](CCCCN)NC(=O)[C@H](CCCCN)NC(=O)[C@H](CCCNC(=N)N)NC(=O)CNC(=O)[C@H](Cc1ccc(O)cc1)NC(=O)c1ccc2c(c1)C(=O)OC21c2ccc(O)cc2Oc2cc(O)ccc21)C(N)=O [TAT]	≤ 30	–
Ac-RWVKVpGOWIKQ-NH2 [WKWK]	–	found to enter intact HeLa cells
